Consider ten molecules from publication PMC10987541, “Characterization of a putative orexin receptor in Ciona intestinalis sheds light on the evolution of the orexin/hypocretin system in chordates” (Scientific Reports, 2024).

No end group written: not given here.

For test [1], the system named is CiOX. As to the kind of experiment: Inhibition of human orexin peptide-mediated Ca2+ responses in CiOX-expressing cells. In kind it is cell-based, Ciona intestinalis. Conditions: agonist orexin-A and -B 1 µM; inhibitor 1 µM added 30 min before; mean ± S.E.M., N = 3-4. The protocol: Figure 7 The sensitivity of the human endogenous orexin peptide (1 µM) -mediated Ca^2+ responses to inhibitors (1 µM) in CiOX-expressing cells. The responses were normalized to the basal + inhibitor (0%) and the control agonist peptide response (in the absence of inhibitor; 100%) separately for each independent experiment before averaging. Data presented as mean ± S.E.M. N = 3–4. The significances are given in relation to the agonist control.
Intracellular calcium elevation is the apparent response upon orexin receptor activation in many cell types. The calcium elevation assay was conducted as previously described. Cells, 1 × 10^5 per well, were plated on polyethyleneimine (25 μg/mL, 1 h, 37 °C)-coated black, clear-bottom, half-area 96-well plates (Greiner). After 24 h, 100 ng/mL doxycycline was added onto the cells and incubated for another 24 h before loading the cells with FLIPR Calcium 5 Assay Kit (Molecular Devices, Sunnyvale, CA, USA) dissolved in and diluted with HBM and supplemented as described above. Cells were incubated for 1 h with the loading dye, before running the assay in FlexStation 3 fluorescence plate reader (Molecular Devices). Inhibitors were added manually at the midpoint of the probe incubation (30 min). Intracellular Ca^2+ levels were measured as fluorescent changes for 150 s (of which 30 s baseline prior to stimulation) with excitation at 485 nm, emission at 525 nm (recording every 1.3 s) at 37 °C.
The data were normalized in each experiment to the control response and then averaged between experiments by calculation of mean ± S.E.M. The N denotes the number of independent experiments and was always at least 3. Paired two-tailed t-test was used for comparison. Significances were as follows: * P < 0.05, ** P < 0.01, *** P < 0.001.

For test [2], the system named is allatotropin receptor of Tribolium castaneum. Conditions: cited from earlier work. The source says:
The data presented in this study strongly support the notion that this orphan C. intestinalis receptor, here called CiOX, is an orexin-like receptor. Despite the sequence divergence, the (proposed) binding cavity of hOX2 and CiOX are highly similar.

Test [3] concerns the target Ciona intestinalis putative orexin receptor fused to eGFP (Ciona intestinalis).
Test [4] concerns CiOX. In kind it is cell-based. Conditions: 100 µM.
Method: (§3) The Flp-In T-REx 293 human cell line (Thermofisher Scientific, Waltham, MA, USA), based on HEK293 cells, was cultured at 37 °C in 5% CO2 in an air‐ventilated humidified incubator according to manufacturer’s protocol, in high glucose Dulbecco’s Modified Eagle Medium (Biowest, Nuaillé, France) supplemented with 10% FBS, 1% Glutamax (Gibco), 10 mM HEPES (VWR LifeScience, Radnor, PA, USA), 100 U/mL penicillin G (Sigma Chemical Co., St. Louis, MO, USA), 80 U/mL streptomycin (Sigma), blasticidin (15 µg/mL) (InvivoGen, San Diego, CA, USA). The host cell line was maintained with zeocin (100 µg/mL) (InvitroGen, Carlsbad, CA, USA) and the transfected cell lines with hygromycin B (100 µg/mL) (InvitroGen). The experimental medium, the HEPES-buffered medium, (HBM: 137 mM NaCl, 5 mM KCl, 1.2 mM MgCl2, 0.44 mM KH2PO4, 4.2 mM NaHCO3, 1 mM CaCl2, 10 mM glucose, 20 mM HEPES, adjusted to pH 7.4 with NaOH), was used in all laboratory experiments. For the calcium elevation assay, HBM was supplemented with 1 mM probenecid [4-(dipropylsulfamoyl)benzoic acid] (Sigma) and 0.2% lipid-free bovine serum album.
(§4) Calcium measurements were performed in triplicate or quadruplicate. […] Non-linear curve-fitting were conducted with Prism 5 (GraphPad Software Inc., La Jolla, CA, USA) using the following equation: Y=basal+responsemax-basal/1+10^logEC50-X
Test [5] deals with wild-type Flp-In T-REx 293 cells. The test can be described thus: Calcium elevation assay in wild-type Flp-In T-REx 293 cells. It is filed as cell-based, human. Conditions: for Ca2+ elevation in wild-type cells: wild-type Flp-In T-REx 293 cells, concentration-response, N = 3.
Method: as §3, §4
For test [6], the target named is T1, CiOX (Ciona intestinalis, UniProt F6YII5).
T1 sequence (F6YII5 1-372): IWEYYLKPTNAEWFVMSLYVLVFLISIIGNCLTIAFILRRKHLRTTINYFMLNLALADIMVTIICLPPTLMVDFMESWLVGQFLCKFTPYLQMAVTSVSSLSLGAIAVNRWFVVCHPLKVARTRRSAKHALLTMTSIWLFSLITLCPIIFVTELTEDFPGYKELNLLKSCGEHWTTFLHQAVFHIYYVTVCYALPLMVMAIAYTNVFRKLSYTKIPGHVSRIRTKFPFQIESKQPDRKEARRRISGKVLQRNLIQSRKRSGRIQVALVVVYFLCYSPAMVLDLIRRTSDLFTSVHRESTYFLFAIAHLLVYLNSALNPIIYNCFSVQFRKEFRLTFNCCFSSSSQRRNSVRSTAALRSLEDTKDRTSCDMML
It is filed as cell-based. Conditions: CiOX-eGFP-expressing Flp-In T-REx 293 cells.
Method: as §3, §4

A further test concerns hOX1. The test can be described thus: Binding of TAMRA-orexin-A (fluorescence microscopy) in hOX1-eGFP-expressing cells. Further details: species or system human. As to conditions: 30 nM. The protocol: (§1) We have previously observed that the N-terminus of orexin-A can tolerate additions without apparent loss of activity on orexin receptors (Kukkonen, unpublished) and it has been reported that fluorescently labelled orexin-A can be used as probe for hOX1/2[56].
(§2) The cells were seeded on polyethyleneimine-coated 25 mm circular glass coverslips (Menzel-Gläser, Braunschweig, Germany). Twenty-four hours after seeding, cells were treated with doxycycline (100 ng/mL) and incubated for another 24 h. Then, the coverslip was washed once with HBM, before mounting in the microfluorometric experiment chamber. The imaging system, composed of the Sutter Lambda DG-4 xenon light source/filter shifter (Sutter Instrument Company, Novato, CA, USA), Nikon TE2000 epifluorescence microscope (Nikon, Tokyo, Japan), Nikon Apo TIRF 60×/1.49 oil immersion objective and Andor iXon 885 electron-multiplying charge-coupled device camera (Oxford Instruments, Abingdon, Oxfordshire, UK), was under the control of the Nikon NIS Elements AR software. Images were alternately acquired at 480/30 nm excitation/510 nm dichroic mirror/535/40 nm emission for eGFP fluorescence and at 540/25 nm excitation/565 nm dichroic mirror/605/55 nm emission for TAMRA fluorescence. […]

Test [7] has as its system wild-type Flp-In T-REx 293 cells. As to the kind of experiment: Binding of TAMRA-orexin-A (fluorescence microscopy) in wild-type Flp-In T-REx 293 cells. Further details: species or system human. As to conditions: 30 nM; 10-minute incubation. Here is the method: as §1, §2
The target of test [8] is T1, CiOX. The test can be described thus: Binding of TAMRA-orexin-A (fluorescence microscopy) in CiOX-eGFP-expressing cells. As to conditions: 30 nM. Here is the method:
as §1
The cells were seeded on polyethyleneimine-coated 25 mm circular glass coverslips (Menzel-Gläser, Braunschweig, Germany). Twenty-four hours after seeding, cells were treated with doxycycline (100 ng/mL) and incubated for another 24 h. Then, the coverslip was washed once with HBM, before mounting in the microfluorometric experiment chamber. The imaging system, composed of the Sutter Lambda DG-4 xenon light source/filter shifter (Sutter Instrument Company, Novato, CA, USA), Nikon TE2000 epifluorescence microscope (Nikon, Tokyo, Japan), Nikon Apo TIRF 60×/1.49 oil immersion objective and Andor iXon 885 electron-multiplying charge-coupled device camera (Oxford Instruments, Abingdon, Oxfordshire, UK), was under the control of the Nikon NIS Elements AR software. Images were alternately acquired at 480/30 nm excitation/510 nm dichroic mirror/535/40 nm emission for eGFP fluorescence and at 540/25 nm excitation/565 nm dichroic mirror/605/55 nm emission for TAMRA fluorescence. A pair of images was acquired once per minute or once per every five minutes depending on the incubation time; i.e., for a longer incubation 5 min was used to avoid potential bleaching. All the additions were made by direct pipetting into the chamber. Experiments were carried out at room temperature. 30 nM TAMRA-orexin-A was used.

Setting [9] is: room temperature, red fluorescence.

For the molecule `Cn1c(SCC(=O)N2CCC[C@H]2C(=O)Nc2ccccc2-c2ccccc2)nc2ccccc21` [TCS 1102, (2S)-1-[2-(1-methylbenzimidazol-2-yl)sulfanylacetyl]-N-(2-phenylphenyl)pyrrolidine-2-carboxamide], the “Inhibition of Ca2+ responses to CiOX stimulation with orexin-A and -B” value (“Inhibition of Ca2+ responses” for short) in the test on CiOX [1] is listed as “nearly fully blocked the response”.
Consider `CNC(=O)[C@@H](c1ccccc1)N1CCc2cc(OC)c(OC)cc2[C@@H]1CCc1ccc(C(F)(F)F)cc1` [almorexant, (2R)-2-[(1S)-6,7-dimethoxy-1-[2-[4-(trifluoromethyl)phenyl]ethyl]-3,4-dihydro-1H-isoquinolin-2-yl]-N-methyl-2-phenylacetamide], for which, in test [2], the “Inhibition of the allatotropin receptor of Tribolium castaneum” value is reported as “not inhibited”. In addition, the “Inhibition of Ca2+ responses” value in the test on CiOX [1] is given as “nearly fully blocked the response”.
As to human orexin-A (peptide), in [3], the EC50 of the Ca2+ elevation in CiOX-eGFP-expressing Flp-In T-REx 293 cells (CiOX-specific response, wild-type response subtracted) was 225 nM.
Regarding `Nc1ncnc2c1ncn2[C@@H]1O[C@H](COP(=O)(O)OP(=O)(O)OP(=O)(O)O)[C@@H](O)[C@H]1O` [ATP], the “Ca2+ response to positive control in CiOX-expressing cells” value in the test with CiOX [4] was “robust Ca^2+ response”. For the same molecule, in test [5] (100 µM), the “Ca2+ response to positive control in wild-type cells” value was “robust Ca^2+ response”.
With “[(1R)-1-[(3S,6S,9S,12S,18R,21S,22R)-21-acetamido-18-benzyl-3-[(1R)-1-methoxyethyl]-4,9,10,12,16-pentamethyl-15-methylidene-2,5,8,11,14,17,20-heptaoxo-22-propan-2-yl-1,19-dioxa-4,7,10,13,16-pentazacyclodocos-6-yl]-2-methylpropyl] (2S,3R)-3-hydroxy-4-methyl-2-(propanoylamino)pentanoate [UBO-QIC]”, in the test on CiOX [1], the “Inhibition of Ca2+ responses” value was “nearly fully inhibited”.
For the molecule “orexin-A15–33: The 19-amino acid-long C-terminal fragment of orexin-A (RLYELLHGAGNHAAGILTL; ends and bridges not checked)”, the “EC50 of Ca2+ elevation” value with CiOX [6] (doxycycline 100 ng/mL 24 h, 37 °C, mean ± S.E.M., N = 3) was “no saturation was reached”. For the same molecule, the “Ca2+ elevation in wild-type cells” value in [5] is listed as “weakly elevated Ca^2+”.
In the case of “M. sexta allatotropin: Manduca sexta allatotropin from Bachem (GFKNVEMMTARGF)”, the “Ca2+ elevation in CiOX receptor-expressing cells” value in the test with CiOX [6] is on record as “induced no Ca^2+ elevation”. In addition, the “Ca2+ elevation in wild-type cells” value in [5] is “induced no Ca^2+ elevation”.
Consider `Cc1nc2ccc(NC(=O)Nc3ccnc4cccnc34)cc2o1` [SB-334867], for which, in the test on CiOX [1], the “Inhibition of Ca2+ responses” value was “much weaker effect”.
For “TAMRA-orexin-A: 5-/6-carboxytetramethylrhodamine (TAMRA)-labelled human orexin-A, custom synthesis (QPLPDCCRQKTCSCRLYELLHGAGNHAAGILTL; ends and bridges not checked; also: TAMRA label, place not given here; UniProt O43612 34-66, looked up)”, the “Internalization (intracellular red fluorescence) in hOX1 receptor-expressing cells” value with hOX1 is listed as “intracellular red fluorescence suggesting internalization”. For the same molecule, the “Binding to the plasma membranes of hOX1-eGFP-expressing cells” value in the test on hOX1 (setting [9]) was “bound to the plasma membranes of OX1 cells quickly after the addition”. Moreover, the “Binding to wild-type Flp-In T-REx 293 cells” value in test [7] is “did not bind”. The “Internalization (intracellular red fluorescence) in CiOX receptor-expressing cells” value with CiOX [8] was “did not observe this”. The “Time for which the bound fluorescence intensity remained stable in CiOX-eGFP-expressing cells” value in the test with CiOX [8] (room temperature) is reported as “at least 30 min”. The “Binding to the plasma membranes of CiOX-eGFP-expressing cells” value with CiOX [8] (setting [9]) is on record as “bound to the plasma membranes of the CiOX receptor-expressing cells”.
For the molecule `COc1ccc(-c2cccc(C(=O)N(C)C)c2)cc1S(=O)(=O)Nc1cccc(NCCNC(=O)c2cccc(C)c2)c1` [Nag 26, N-[2-[3-[[5-[3-(dimethylcarbamoyl)phenyl]-2-methoxyphenyl]sulfonylamino]anilino]ethyl]-3-methylbenzamide], on CiOX [6], the “Ca2+ elevation in CiOX receptor-expressing cells” value was “induced no Ca^2+ elevation”. Besides, the “Ca2+ elevation in wild-type cells” value in [5] is on record as “induced no Ca^2+ elevation”.
